Data published in patent publication US20080181876A1, “Methods for treating acute and subchronic pain” (priority 2007, published 2008).
Entries after “also recorded” stand apart in the source; their conditions may differ.

Key:
Sprague-Dawley rats = test: Modified Hargreaves test (high and low intensity), tail and hindpaw withdrawal to heat stimuli; assay type: in vivo, rat
Method: Pathogen-free adult male Sprague-Dawley rats (300-375 g; Harlan Labs, Madison, Wis.) were used in all experiments. Rats were housed in temperature (23±3° C.) and light (12 h: 12 h light:dark cycle; lights on at 0700) controlled rooms with standard rodent chow and water available ad libitum. All procedures were approved by the Institutional Animal Care and Use Committee of the University of Colorado at Boulder. Each study represents an n=6 per group.
Morphine sulfate and oxycodone hydrochloride were purchased from Sigma (St. Louis, Mo., USA). Morphine and oxycodone were administered subcutaneously at 4 mg/kg in a dose volume of 1 ml/kg in sterile injection normal saline. Ibudilast was supplied by Avigen (Alameda, Calif., USA). Ibudilast was administered intraperitoneally at 7.5 mg/kg in a dose volume of 2.5 ml/kg in 35% PEG: 65% injection saline. Morphine and oxycodone doses reported are as free base concentrations.
Hargreaves tests for analgesia and hyperalgesia. Rats received at least three 60 min habituations to the test environment prior to behavioral testing. Thresholds for behavioral response to heat stimuli applied to the plantar surface of each hindpaw and tail were assessed using a modified Hargreaves test (Hargreaves et al., 1988). All testing was conducted blind with respect to group assignment. Briefly, baseline withdrawal values were calculated from an average of 2 consecutive withdrawal latencies of the tail and the left and the right hindpaws, measured at 15-min intervals. Latencies for the high intensity stimulus at baseline ranged from 2 to 3 s, and a cut-off time of 10 s was imposed to avoid tissue damage. Latencies for the low intensity stimulus at baseline ranged from 6 to 7 s, and a cut-off time of 20 s was imposed to avoid tissue damage. The order of paw and tail testing varied randomly.
The analgesic responses were calculated as the % of maximal possible effect
(Carmody, 1995). For high intensity Hargreaves, a cut off of 10 s was used. For low intensity Hargreaves, a 20 s cut off was employed. Since there is no unilateral paw effect expected (or observed) left and right withdrawal latencies were averaged. Statistical significance for analysis of time courses was assessed using a two-way repeated ANOVA with Bonferroni post hoc test and compared the analgesic responses of active treatments versus their vehicle controls. Area under the curves were analyzed with a students t-test. Significance was set at P<0.05. Calculations were conducted with Excel 2003 SP2 (Microsoft, Redmond, Calif., USA) & Prism 4.03 (GraphPad, San Diego, Calif., USA).
Following baseline withdrawal latency assessments (−45 min), animals received ibudilast or vehicle and were tested again 10 min later to determine if ibudilast or vehicle had any effect on withdrawal latencies. At this time (time 0), the animals received a subcutaneous saline injection (1 ml/kg) to control for conditions in Experiment 2 (see below). Animals were then tested every 10 minutes for 80 min alternating high and low intensity Hargreaves tests.
Following baseline withdrawal latency assessments (−45 min), animals received ibudilast or vehicle (−30 min) and were tested again at −10 min. At time 0, animals received a subcutaneous morphine injection (4 mg/kg in a dose volume of 1 ml/kg in injection saline) and were tested every 10 minutes for 230 min alternating high and low intensity Hargreaves tests. […]

Sprague-Dawley (CD) rats = test: Rat tail-flick latency test (heat source, 15 second maximum); assay type: in vivo; settings: for antinociceptive activity (tail-flick latency), administered alone: single agent: morphine 1.2 mg/kg s.c. or ibudilast 50 mg/kg po
Method: Male Sprague-Dawley (CD) rats were acclimated to a room temperature of 79° F. to semi-confined conditions on a heated glass surface (79° F.). On the first day, rats were acclimated to a glass surface for 20-30 minutes. Rats were in chambers made of plexiglass and could move freely in either direction. No stimulus was given on day 1. On day 2, rats were acclimated for 5 minutes, and a high intensity beam of light was directed at each rat tail approximately 4 cm from the tip. The time it took for a rat tail to withdraw from the heat source was recorded as the baseline latent period for tail flick. Three trials were done with 5 minutes between trials for each rat. The light source was moved for the 2nd and 3rd trials one cm caudal and rostral of the original trial to avoid tissue damage. Animals were dosed orally with ibudilast (50 mg/kg in vehicle (10% HCO60+10% PEG in sterile water) and/or 1.2 mg/kg morphine s.c. formulated in saline for injection. Dose volumes were 1 ml/kg for s.c. administrations (i.e. opioid) and 10 ml/kg for p.o. administrations. Animals were dosed and returned to their cages until 5 minutes before each hourly time point, when they were returned to the glass surface and stimulated with the heat source (3 trials/time point). The ibudilast vehicle was also shown not to have analgesic activity and performed like the saline control. Studies were performed at Avigen Inc. under IACUC regulations.

Compound | enhancement of morphine analgesia, tail and paw withdrawal latencies (Sprague-Dawley rats; ibudilast 7.5 mg/kg i.p. 30 min prior to morphine 4 mg/kg s.c., high and low intensity Hargreaves, vs vehicle + morphine) | enhancement of oxycodone analgesia, tail and paw withdrawal latencies (Sprague-Dawley rats; ibudilast 7.5 mg/kg i.p. 30 min prior to oxycodone 4 mg/kg s.c., high and low intensity Hargreaves, vs vehicle + oxycodone) | area under the analgesia curve, co-administration with morphine (Sprague-Dawley rats; ibudilast 7.5 mg/kg i.p. + morphine 4 mg/kg s.c., tail and hind paw, vs vehicle + morphine) | area under the analgesia curve, co-administration with oxycodone (Sprague-Dawley rats; ibudilast 7.5 mg/kg i.p. + oxycodone 4 mg/kg s.c., tail and hind paw, vs vehicle + oxycodone) | tail and paw withdrawal latencies (% maximal possible effect), ibudilast alone (Sprague-Dawley rats; ibudilast 7.5 mg/kg i.p. alone (followed by s.c. saline), high and low intensity Hargreaves, vs vehicle 35% PEG) | tail-flick latency, co-administration of oral ibudilast and s.c. morphine (Sprague-Dawley (CD) rats; ibudilast 50 mg/kg po + morphine 1.2 mg/kg s.c. concurrently, vs either therapeutic alone) | antinociceptive activity (tail-flick latency), administered alone (Sprague-Dawley (CD) rats)
CC(C)C(=O)c1c(C(C)C)nn2ccccc12 [ibudilast, 3-isobutyryl-2-isopropylpyrazolo[1,5-a]pyridine] | significantly enhanced; also recorded: potentiated analgesia | significantly enhanced; also recorded: potentiated analgesia | significant increase in analgesia | significant increase in analgesia | no significant influence; also recorded: little to no effect | substantial, greater-than-additive increase; also recorded: potentiates morphine-induced analgesia | weak antinociceptive activity
CN1CC[C@]23c4c5ccc(O)c4O[C@H]2[C@@H](O)C=C[C@H]3[C@H]1C5 [morphine] | – | – | – | – | – | – | weak antinociceptive activity
